Assay results published in patent publication US10465230B2, “Chemiluminescence-based haemostasis assay” (Stichting Katholieke Universiteit, priority 2010, dated 2019).
Structures can show the parent of a compound that is named as a salt.

What was measured:
Assay type in all cases: biochemical
thrombin [1] = target: T1, thrombin (Homo sapiens, UniProt P00734); experiment: Chemiluminescent substrate cleavage by purified thrombin (luciferase/ATP luminescence); settings: for RLU thrombin: 30 nM thrombin final, instead of plasma, assay as example 1; for RLU thrombin/RLU plasmin: ratio of signal with 30 nM thrombin to signal with 40 nM plasmin
T1 construct: allowing factor Xa to convert prothrombin to thrombin
Procedure: (§1) In a 96-wells plate (final volume 120 μl), the following components were added:
(§2) 10 μl MeO—(CH2CH2O)2-acetyl-beta-Ala-Gly-Arg-aminoluciferin TFA salt (thrombin specific substrate (10 mM)), or pyroGlu-Phe-Lys-aminoluciferin TFA salt (plasmin specific substrate (10 mM))
(§3) 2 μl Luciferase (Sigma, 72 μg/ml),
(§4) 2 μl ATP (Sigma, 0.33 mM),
(§5) 14 μl TRIS/NaCl buffer (50 mM TRIS and 150 mM NaCl, pH 7.4).
(§6) This reaction mixture was mixed, followed by the addition of 4 μl TRIS/NaCl buffer with Ca^2+ to start thrombin generation. Final concentration 16.7 mM. The resultant was mixed rapidly, and thrombin generation was monitored in a Fluostar. The settings of the Fluostar were: 140 cycli of 30 seconds, Gain: Maximum=4095. Prior to measurement, 25 μl reaction mixture was taken from the well having a total volume of 120 μl. This was pipetted in a 384-well multi-titre plate suitable for measuring luminescence. The measurement was started immediately. Luminescence is depicted in Relative luminescence units (RLU).
Various substrates were analyzed using thrombin and plasmin The assay was essentially performed as described in example 1. However, instead of plasma, plasmin or thrombin were added to final concentrations of 30 nM (thrombin) or 40 nM (plasmin).

plasmin = plasmin (Homo sapiens, UniProt P00747); experiment: Chemiluminescent substrate cleavage by purified plasmin (luciferase/ATP luminescence); settings: for RLU plasmin: 40 nM plasmin final, instead of plasma, assay as example 1
Procedure: as §1, §2, §3, §4, §5, §6
Various substrates were analyzed using thrombin and plasmin The assay was essentially performed as described in example 1. […]

thrombin [2] = target: T1, thrombin; experiment: Chemiluminescent substrate cleavage by purified thrombin (luciferase/ATP luminescence); settings: 150 nM thrombin vs 40 nM plasmin in TBS buffer

Chain of plasmin (P00747 581-810 limits assumed, species assumed): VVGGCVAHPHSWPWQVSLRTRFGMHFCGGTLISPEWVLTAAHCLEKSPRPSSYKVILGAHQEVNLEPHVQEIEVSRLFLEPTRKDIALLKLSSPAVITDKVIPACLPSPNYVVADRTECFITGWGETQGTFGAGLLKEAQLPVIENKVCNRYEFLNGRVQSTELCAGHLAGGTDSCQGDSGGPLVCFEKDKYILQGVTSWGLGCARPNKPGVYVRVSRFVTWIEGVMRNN
Chain of plasmin (P00747 97-580 partner limits assumed, species assumed): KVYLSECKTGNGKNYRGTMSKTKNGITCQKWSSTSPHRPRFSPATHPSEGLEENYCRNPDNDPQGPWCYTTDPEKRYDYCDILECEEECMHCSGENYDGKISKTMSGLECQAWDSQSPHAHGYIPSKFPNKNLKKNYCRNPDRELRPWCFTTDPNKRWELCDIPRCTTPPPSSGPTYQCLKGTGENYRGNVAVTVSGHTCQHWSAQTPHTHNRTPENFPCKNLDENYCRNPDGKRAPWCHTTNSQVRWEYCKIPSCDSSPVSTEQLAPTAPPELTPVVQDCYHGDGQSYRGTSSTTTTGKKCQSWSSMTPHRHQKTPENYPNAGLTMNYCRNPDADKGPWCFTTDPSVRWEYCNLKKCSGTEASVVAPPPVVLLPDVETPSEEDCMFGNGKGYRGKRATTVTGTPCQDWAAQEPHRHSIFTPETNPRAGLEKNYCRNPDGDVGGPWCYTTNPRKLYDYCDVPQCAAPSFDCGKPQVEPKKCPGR

Compound	RLU thrombin (thrombin [1]) [RLU]	RLU thrombin/RLU plasmin (thrombin [1])	RLU plasmin (plasmin) [RLU]	reactivity of thrombin and plasmin on the S1 substrate (FIG. 1a) (thrombin [2])	reactivity of thrombin and plasmin on the S2 substrate (FIG. 1b) (plasmin; 4 nM plasmin vs 15 nM thrombin in TBS buffer)
COCC(=O)NCCC(=O)NCC(=O)N[C@@H](CCCNC(=N)N)C(=O)Nc1ccc2nc(C3=N[C@@H](C(=O)O)CS3)sc2c1.O=C(O)C(F)(F)F [CH3O-acetyl-beta-Ala-Gly-Arg-aminoluciferine•TFA]	925567	3.1	294631	–	–
N=C(N)NCCC[C@H](NC(=O)CNC(=O)CNC(=O)OCc1ccccc1)C(=O)Nc1ccc2nc(C3=N[C@@H](C(=O)O)CS3)sc2c1.O=C(O)C(F)(F)F [Cbz-Gly-Gly-Arg-aminoluciferine•TFA]	771302	5.3	146486	–	–
COCCOCCOCC(=O)NCCC(=O)NCC(=O)NC(CCCNC(=N)N)C(=O)Nc1ccc2nc(C3=NC(C(=O)O)CS3)sc2c1.O=C(O)C(F)(F)F (stereo not drawn) [MeO—(CH2CH2O)2-acetyl-beta-Ala-Gly-Arg-aminoluciferin TFA salt]	–	–	–	more susceptible for their respective enzyme	–
COCCOCCOCC(=O)NCCC(=O)NCC(=O)N[C@@H](CCCNC(=N)N)C(=O)Nc1ccc2nc(C3=N[C@@H](C(=O)O)CS3)sc2c1 [MeO—(CH2CH2O)2-acetyl-beta-Ala-Gly-Arg-aminoluciferin TFA salt]	814171	3.2	251299	–	–

More lines, main results first:

RLU thrombin (thrombin [1]) [RLU]	RLU thrombin/RLU plasmin (thrombin [1])	RLU plasmin (plasmin) [RLU]	Compound	reactivity of thrombin and plasmin on the S1 substrate (FIG. 1a) (thrombin [2])	reactivity of thrombin and plasmin on the S2 substrate (FIG. 1b) (plasmin; 4 nM plasmin vs 15 nM thrombin in TBS buffer)
300946	0.40	759874	COCCOCCOCC(=O)NC(Cc1ccccc1)C(=O)NC(CCCNC(=N)N)C(=O)Nc1ccc2nc(C3=NC(C(=O)O)CS3)sc2c1.O=C(O)C(F)(F)F (stereo not drawn) [CH3O—(CH2CH2O)2-acetyl-Phe-Arg-aminoluciferine•TFA]	–	–
340768	0.27	1282351	COCCOCCOCCOCCOCC(=O)NC(Cc1ccccc1)C(=O)NC(CCCNC(=N)N)C(=O)Nc1ccc2nc(C3=NC(C(=O)O)CS3)sc2c1.O=C(O)C(F)(F)F (stereo not drawn) [CH3O—(CH2CH2O)4-acetyl-Phe-Arg-aminoluciferine•TFA]	–	–
293198	2.2	134983	COCCOCCOCCOCCOCC(=O)NCCC(=O)NCC(=O)N[C@@H](CCCNC(=N)N)C(=O)Nc1ccc2nc(C3=N[C@@H](C(=O)O)CS3)sc2c1.O=C(O)C(F)(F)F [CH3O—(CH2CH2O)4-acetyl-beta-Ala-Gly-Arg-aminoluciferine•TFA]	–	–
292161	4.7	62387	N=C(N)NCCC[C@H](NC(=O)CNC(=O)CCN)C(=O)Nc1ccc2nc(C3=N[C@@H](C(=O)O)CS3)sc2c1.O=C(O)C(F)(F)F.O=C(O)C(F)(F)F [H-beta-Ala-Gly-Arg-aminoluciferine•2TFA]	–	–
139546	0.07	1999875	NCCCC[C@H](NC(=O)[C@H](Cc1ccccc1)NC(=O)[C@@H]1CCC(=O)N1)C(=O)Nc1ccc2nc(C3=N[C@@H](C(=O)O)CS3)sc2c1 [PyroGlu-Phe-Lys-aminoluciferine•TFA, pyroGlu-Phe-Lys-aminoluciferin TFA salt]	–	more susceptible for their respective enzyme
